US8445474B2 (Knopp Neurosciences, Inc., priority 2006, dated 2013)
pIC50, pKi: −log10 of the molar value.

Tests used:
[1] = Dissolution of exploratory combination capsules in simulated gastric fluid (SGF), chiral HPLC; type: physicochemical; details: for Average Concentrations of the enantiomer, Experiments SGF (1) and SGF (2) / Concentration of the enantiomer in SGF (1) Vessel / Concentration of the enantiomer in SGF (2) Vessel: combination capsule in 10 mL SGF pH 1.2
Protocol: Drug Formulation. […] Normal phase, chiral HPLC was used for monitoring the release of R(+) pramipexole and S(−) pramipexole in simulated gastric fluid (SGF).
Dissolution Study. SGF (pH=1.2) was prepared by diluting 1 g of sodium chloride and 7 mL of concentrated HCl to 1 L with HPLC grade water. The dissolution experiment was run as follows: an exploratory combination capsule was placed in 10 mL of SGF and shaken under ambient conditions at 600 RPM for 60 minutes. Aliquots of 100 μL were pulled from the same sample vessel at various time points. The 100 μL samples of SGF solution were evaporated using a nitrogen bleed and heat and the residues were dissolved in the HPLC diluent and filtered through 0.45 μm syringe filters. […] This experiment was performed in duplicate (experiment numbers SGF (1) (see Table 4) and SGF (2) (see Table 5)) and the results are also provided in average values (see Table 6). The tables and figures below summarize the results from these experiments.

dopamine receptors = details: present data
[2] = biological target: human cloned dopamine receptor D3 (Homo sapiens, UniProt P35462); experiment: biochemical
Protocol: (§1) Eight concentrations were tested: 50 nM, 100 nM, 500 nM, 1 μM, 5 μM, 10 μM, 50 μM, 100 μM. These concentrations were tested in either CHO (Chinese hamster ovary) or HEK293 (human embryonic kidney) cell lines expressing human cloned dopamine receptors (D1, D2S, D2L, D3, D4, D5). The radio-ligand in each case was either [^3H] spiperone or [^3H] SCH23390 (a classic D1 dopamine receptor antagonist R-(+)-7-Chloro-8-hydroxy-3-methyl-1-phenyl-2,3,4,5-tetrahydro-1H-3-benzazepine hydrochloride), both antagonists at 0.3 nM. Incubation was for 60 minutes, and data were collected for 2 repeats using scintillation counting.

[3] = biological target: human cloned dopamine receptor D5 (Homo sapiens, UniProt P21918); experiment: biochemical
Protocol: as §1

[4] = biological target: human cloned dopamine receptor D2S (Homo sapiens, UniProt P14416); details: R(+) versus S(−)
Protocol: as §1

[5] = biological target: human cloned dopamine receptor D2L (Homo sapiens, UniProt P14416); details: R(+) versus S(−)
Protocol: as §1

[6] = 4320 minutes, stored benchtop in clear vial
[7] = non-naïve male beagle dogs, single oral dose

Sequence of human cloned dopamine receptor D3 (P35462 whole entry): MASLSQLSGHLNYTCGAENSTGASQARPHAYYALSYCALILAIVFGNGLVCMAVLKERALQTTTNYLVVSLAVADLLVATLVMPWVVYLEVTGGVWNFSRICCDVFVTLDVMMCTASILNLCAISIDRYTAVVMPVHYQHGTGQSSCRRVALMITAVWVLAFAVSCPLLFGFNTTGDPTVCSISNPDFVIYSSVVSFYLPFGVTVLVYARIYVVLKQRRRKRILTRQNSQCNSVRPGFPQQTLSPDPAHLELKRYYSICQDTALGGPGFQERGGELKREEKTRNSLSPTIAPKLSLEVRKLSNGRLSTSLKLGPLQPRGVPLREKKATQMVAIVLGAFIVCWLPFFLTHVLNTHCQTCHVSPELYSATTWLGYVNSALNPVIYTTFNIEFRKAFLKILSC
Sequence of human cloned dopamine receptor D5 (P21918 whole entry): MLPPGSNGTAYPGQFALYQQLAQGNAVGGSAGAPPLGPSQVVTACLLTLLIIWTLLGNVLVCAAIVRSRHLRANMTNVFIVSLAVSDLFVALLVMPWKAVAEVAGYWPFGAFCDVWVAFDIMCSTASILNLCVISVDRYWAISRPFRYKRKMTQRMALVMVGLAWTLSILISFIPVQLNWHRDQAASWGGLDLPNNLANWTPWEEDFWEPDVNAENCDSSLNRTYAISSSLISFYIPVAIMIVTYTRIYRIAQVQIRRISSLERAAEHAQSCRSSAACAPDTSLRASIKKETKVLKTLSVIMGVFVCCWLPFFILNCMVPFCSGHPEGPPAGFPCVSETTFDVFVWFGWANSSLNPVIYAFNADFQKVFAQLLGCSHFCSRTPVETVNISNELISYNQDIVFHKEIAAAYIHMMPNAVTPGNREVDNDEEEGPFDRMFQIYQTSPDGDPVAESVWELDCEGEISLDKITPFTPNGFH
Sequence of human cloned dopamine receptor D2S (P14416 1-414 isoform P14416-2): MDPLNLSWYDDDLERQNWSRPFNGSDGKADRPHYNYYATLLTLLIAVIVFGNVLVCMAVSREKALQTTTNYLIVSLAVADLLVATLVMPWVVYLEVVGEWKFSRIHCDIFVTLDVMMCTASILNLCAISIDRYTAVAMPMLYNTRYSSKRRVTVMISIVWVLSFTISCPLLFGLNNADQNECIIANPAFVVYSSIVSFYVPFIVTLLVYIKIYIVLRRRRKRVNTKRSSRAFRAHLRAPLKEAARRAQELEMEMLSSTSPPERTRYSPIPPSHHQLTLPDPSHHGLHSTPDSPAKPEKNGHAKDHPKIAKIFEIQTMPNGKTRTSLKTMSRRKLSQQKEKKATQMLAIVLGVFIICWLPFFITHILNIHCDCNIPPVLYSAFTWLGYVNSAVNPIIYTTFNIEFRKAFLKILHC
Sequence of human cloned dopamine receptor D2L (P14416 whole entry): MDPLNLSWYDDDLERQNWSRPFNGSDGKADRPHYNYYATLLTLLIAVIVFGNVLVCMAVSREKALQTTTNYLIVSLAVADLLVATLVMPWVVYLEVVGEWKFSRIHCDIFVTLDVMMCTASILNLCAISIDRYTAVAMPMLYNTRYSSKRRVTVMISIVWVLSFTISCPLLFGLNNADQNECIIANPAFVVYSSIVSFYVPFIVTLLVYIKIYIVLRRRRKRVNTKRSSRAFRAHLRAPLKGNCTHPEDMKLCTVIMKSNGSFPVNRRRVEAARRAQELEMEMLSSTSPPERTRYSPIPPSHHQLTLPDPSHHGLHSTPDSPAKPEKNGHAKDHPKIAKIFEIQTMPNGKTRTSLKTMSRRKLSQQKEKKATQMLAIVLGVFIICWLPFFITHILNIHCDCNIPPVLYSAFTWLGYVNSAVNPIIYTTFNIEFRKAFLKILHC
Protocol for male beagle dogs: Doses were administered orally by gavage and clinical observations were taken continuously following dosing: hourly for the first four hours, and then twice daily cage-side observations for the duration of the inter-dose or post-dose interval. Observations were made of clinical signs, mortality, injury and availability of food and water. Animals were fasted for 24 hr prior to dosing. Dogs in each group were exposed to only one drug, or the combination; each dose was administered only once, with a subsequent dose administered after a recovery period of 4 days.

In the case of `CCCN[C@H]1CCc2nc(N)sc2C1` (single isomer, unassigned) [R(+) pramipexole], the “Average Concentrations of the enantiomer, Experiments SGF (1) and SGF (2)” value (from here on “Average Concentrations of the enantiomer”) ([1]; 3 minutes) was 0 mg/mL, the “Concentration of the enantiomer in SGF (1) Vessel” value (“Concentration … (1) Vessel” for short) ([1]; 3 minutes) was 0 µg/mL and the “Concentration of the enantiomer in SGF (2) Vessel” value (“Concentration … (2) Vessel” for short) ([1]; 3 minutes) was 0 µg/mL. The “Average Concentrations of the enantiomer” value ([1]; 4 minutes) was 0.002035 mg/mL, the “Concentration … (1) Vessel” value ([1]; 4 minutes) was 1.824 µg/mL and the “Concentration … (2) Vessel” value ([1]; 4 minutes) was 2.245 µg/mL. The “Average Concentrations of the enantiomer” value ([1]; 6 minutes) was 0.06814 mg/mL, the “Concentration … (1) Vessel” value ([1]; 6 minutes) was 42.59 µg/mL and the “Concentration … (2) Vessel” value ([1]; 6 minutes) was 93.7 µg/mL. For the same compound, the “Average Concentrations of the enantiomer” value ([1]; 8 minutes) was 7.346 mg/mL, the “Concentration … (1) Vessel” value ([1]; 8 minutes) was 6441 µg/mL and the “Concentration … (2) Vessel” value ([1]; 8 minutes) was 8250 µg/mL. For the same compound, the “Average Concentrations of the enantiomer” value ([1]; 10 minutes) was 8.615 mg/mL, the “Concentration … (1) Vessel” value ([1]; 10 minutes) was 8443 µg/mL and the “Concentration … (2) Vessel” value ([1]; 10 minutes) was 8787 µg/mL. The “Average Concentrations of the enantiomer” value ([1]; 11 minutes) was 8.938 mg/mL, the “Concentration … (1) Vessel” value ([1]; 11 minutes) was 8746 µg/mL and the “Concentration … (2) Vessel” value ([1]; 11 minutes) was 9131 µg/mL. For the same compound, the “Average Concentrations of the enantiomer” value ([1]; 12 minutes) was 8.927 mg/mL, the “Concentration … (1) Vessel” value ([1]; 12 minutes) was 8767 µg/mL and the “Concentration … (2) Vessel” value ([1]; 12 minutes) was 9086 µg/mL. For the same compound, the “Average Concentrations of the enantiomer” value ([1]; 14 minutes) was 9.164 mg/mL, the “Concentration … (1) Vessel” value ([1]; 14 minutes) was 9236 µg/mL and the “Concentration … (2) Vessel” value ([1]; 14 minutes) was 9092 µg/mL. The “Average Concentrations of the enantiomer” value ([1]; 15 minutes) was 9.463 mg/mL, the “Concentration … (1) Vessel” value ([1]; 15 minutes) was 9510 µg/mL and the “Concentration … (2) Vessel” value ([1]; 15 minutes) was 9416 µg/mL. The “Average Concentrations of the enantiomer” value ([1]; 17 minutes) was 9.438 mg/mL, the “Concentration … (1) Vessel” value ([1]; 17 minutes) was 9398 µg/mL and the “Concentration … (2) Vessel” value ([1]; 17 minutes) was 9477 µg/mL. The “Average Concentrations of the enantiomer” value ([1]; 18 minutes) was 9.258 mg/mL, the “Concentration … (1) Vessel” value ([1]; 18 minutes) was 9127 µg/mL and the “Concentration … (2) Vessel” value ([1]; 18 minutes) was 9390 µg/mL. The “Average Concentrations of the enantiomer” value ([1]; 20 minutes) was 9.475 mg/mL, the “Concentration … (1) Vessel” value ([1]; 20 minutes) was 9457 µg/mL and the “Concentration … (2) Vessel” value ([1]; 20 minutes) was 9493 µg/mL. The “Average Concentrations of the enantiomer” value ([1]; 25 minutes) was 9.61 mg/mL, the “Concentration … (1) Vessel” value ([1]; 25 minutes) was 9579 µg/mL and the “Concentration … (2) Vessel” value ([1]; 25 minutes) was 9641 µg/mL. For the same compound, the “Average Concentrations of the enantiomer” value ([1]; 30 minutes) was 9.65 mg/mL, the “Concentration … (1) Vessel” value ([1]; 30 minutes) was 9894 µg/mL and the “Concentration … (2) Vessel” value ([1]; 30 minutes) was 9406 µg/mL. The “Average Concentrations of the enantiomer” value ([1]; 60 minutes) was 9.127 mg/mL, the “Concentration … (1) Vessel” value ([1]; 60 minutes) was 9530 µg/mL and the “Concentration … (2) Vessel” value ([1]; 60 minutes) was 8725 µg/mL. For the same compound, the “Average Concentrations of the enantiomer” value [1, 6] was 4.163 mg/mL, the “Concentration … (1) Vessel” value [1, 6] was 3624 µg/mL and the “Concentration … (2) Vessel” value [1, 6] was 4702 µg/mL. For the same compound, the “course of release from the capsule” value ([1]; SGF pH 1.2, 60 minutes) was “leveled off after 11 minutes”, the “cause of decrease in concentration at approximately 72 hours” value ([1]; SGF samples stored benchtop in a clear vial) was “light degradation” and the “less active as a dopamine agonist than the S(−) enantiomer” value (dopamine receptors) was “more than 5,000 fold”. The “human dose equivalent to dog MTD” value (male beagle dogs; 70 kg individual) was “about 3,000 mg”, the “MTD greater than for the S(−) enantiomer” value (male beagle dogs; non-naïve dogs) was “about 10,000 fold” and the “NOAEL greater than for the S(−) enantiomer” value (male beagle dogs; non-naïve dogs) was “approximately 20,000 fold”. For the same compound, the MTD (male beagle dogs; [7]) was 75 mg/kg, the NOAEL (male beagle dogs; [7]) was 25 mg/kg and the pIC50 [2] was 4.92. For the same compound, the pKi [2] was 5.57, the “less affinity for the D3 receptor subtype than the S(−) enantiomer” value ([2]; R(+) versus S(−)) was “about 5,000 fold” and the pIC50 [3] was less than 4.00. The pKi [3] was less than 4.00, the “lower affinity for the D2S receptor subtype than the S(−) enantiomer” value [4] was > 10,000 fold and the “lower affinity for the D2L receptor subtype than the S(−) enantiomer” value [5] was > 10,000 fold.
